Source: publication PMC5355235, “FLT3 activating mutations display differential sensitivity to multiple tyrosine kinase inhibitors” (Oncotarget, 2017)
Where two headings read alike, the source gives them in different places.

Legend:
[1] = system: BaF3 FLT3 840G+S mutant cells; assay: MTT growth inhibition assay, BaF3 FLT3 840G+S cells; format: cell-based; settings: no IL-3, 48 h, read-out: Proliferation IC50
Description: (§1) Figure 1 Growth of AL mutants in the presence of FLT3 TKI The BaF3 AL mutants were grown in the absence of IL-3 and analyzed by treatment in increasing concentrations of FLT3 TKI for 48 hours, after which growth inhibition was assessed using the MTT assay. Means are representative of at least three independent experiments.
(§2) The cells were grown in the absence of IL3 and analyzed by treatment in increasing concentrations of FLT3 TKI for 48 hours, after which growth inhibition was assessed using the MTT assay. Each experiment was performed at least three times and representative results are shown.
(§3) Based on Trypan Blue exclusion, 2 × 10^4 viable cells were seeded in quadruplicate in a 96-well microtiter plate in the presence or absence of inhibitor for 48 h. The effect of drug activity on cell viability was measured using the 3-(4,5-Dimethylthiazol-2-yl)-2,5-diphenyltetrazolium bromide (MTT) assay according to the manufacturer's instructions (Roche Applied Science, Indianapolis, IN, USA). Following treatment, cells were incubated for 4 h in MTT followed by dissolution in solubilization buffer overnight. Absorbance was measured at 570 nm on a Bio-Rad plate reader (Hercules, CA, USA). […] Results shown are presented as means and are representative of at least three independent experiments.

[2] = system: BaF3 FLT3 I836L+D mutant cells; assay: MTT growth inhibition assay, BaF3 FLT3 I836L+D cells; format: cell-based; settings: no IL-3, 48 h, read-out: Proliferation IC50
Description: as §1, §2, §3

[3] = system: BaF3 FLT3 D593D mutant cells; assay: MTT growth inhibition assay, BaF3 FLT3 D593D cells; format: cell-based; settings: no IL-3, 48 h, read-out: Proliferation IC50
Description: as §1, §2, §3

[4] = system: BaF3 FLT3 I836S mutant cells; assay: MTT growth inhibition assay, BaF3 FLT3 I836S cells; format: cell-based; settings: BaF3 FLT3 I836S, no IL-3, 48 h, MTT, read-out: Proliferation IC50
Description: as §1, §2, §3

[5] = system: BaF3 FLT3 D835Y cells; assay: Engraftment of BaF3 D835Y luciferase cells in BALB/c mice, bioluminescence imaging; format: in vivo; settings: 10 mg/kg once daily oral gavage, day 5 to day 9
Description: On day 5 following transplantation, the level of engraftment was assessed by imaging mice for bioluminescence on an IVIS Spectrum imager. […] This experiment was repeated three times.
Cells were sorted for GFP and CD135 expression on a FACS AriaII cytometer using FACSDiva software. For engraftment, 2 ×10^6 cells were injected via tail vein into BALB/c mice (Jackson Laboratories, Bar Harbor, ME, USA) (day 0). […] [36, 37] […] Mice were imaged by intraperitoneal injection of luciferin (3 mg) and visualizing on an IVIS Spectrum imager (Caliper LifeSciences, Hopkinton, MA, USA) using Living Image software for analysis on day 5 following inoculation to monitor engraftment and on day 9 to assess drug effect. All animal procedures were conducted in accordance with the policy of the Johns Hopkins University School of Medicine Animal Care and Use Committee.

[6] = system: BaF3 FLT3 D835Y mutant cells; assay: MTT growth inhibition assay, BaF3 FLT3 D835Y cells; format: cell-based; settings: no IL-3, 48 h, read-out: Proliferation IC50
Description: as §1, §2, §3

[7] = system: BaF3/ITD cells; assay: MTT growth inhibition assay, BaF3 FLT3-ITD cells; format: cell-based; settings: no IL-3, 48 h, read-out: Proliferation IC50
Description: as §1, §2, §3

[8] = system: FLT3/ITD; assay: FLT3/ITD autophosphorylation and signaling pathways, Western blot; format: cell-based; settings: FLT3/ITD cells, 1 h, concentration-dependent
Description: (§4) Activated FLT3 expression was measured by performing immunoprecipitation, SDS-PAGE and Western blotting as previously described. Specifically, 10^7 cells were washed in medium and treated with inhibitor for 1 h followed by stimulation with 25 ng/ml of FLT3 ligand for 15 minutes where indicated. Cells were washed twice with ice-cold PBS and lysed in 300 µl of NP-40 lysis buffer (150 mM NaCl, 20 mM TrisHCl (pH7.4), 10% glycerol, 1% NP-40, 10 mM EDTA, 100 mM NaF) with 2 mM Na3VO4 and protease inhibitors (Complete Tablets, Roche, Mannheim, Germany) at 4°C for 30 m. Cell lysate was harvested by centrifugation at 13,000 × g for 30 m at 4°C. FLT3 S-18 antibody was incubated with 500 µg lysate overnight at 4°C followed by immunoprecipitation with protein A-agarose beads for 2 h. Beads were washed once in Tris buffered saline with 1% Tween-20 (TBST) and twice in TBS. Samples were boiled in sodium dodecyl sulfate (SDS) sample buffer prior to separating in a 8% SDS-polyacrylamide gel (SDS-PAGE). Proteins were transferred to a polyvinyl diflouride (PVDF) membrane (Millipore, Bedford, MA, USA) and detected by 4G10 phosphotyrosine antibody and anti-FLT3 S-18 antibody. FLT3 was visualized using the Odyssey Infra Red Imaging System from Li-Cor (Lincoln, NE, USA) using AlexaFluor 680 goat anti-mouse and AlexaFluor 800 goat anti-rabbit antibodies. Phosphorylation of the FLT3 downstream signaling mediators, STAT5, AKT and MAP kinase was investigated by loading 50 µg of whole cell lysate and probing with the indicated antibodies. The membrane was washed and incubated in goat anti-rabbit secondary antibody conjugated to horseradish peroxidase followed by enhanced chemiluminescence (ECL). The membrane was subsequently stripped in 200 mM glycine buffer, pH 2.5 with 0.1% Tween-20 and reprobed for STAT5, AKT and MAP kinase expression using the respective antibodies.

[9] = system: BaF3 FLT3 I836T mutant cells; assay: MTT growth inhibition assay, BaF3 FLT3 I836T cells; format: cell-based; settings: no IL-3, 48 h, read-out: Proliferation IC50
Description: as §1, §2, §3

[10] = system: BaF3 FLT3 D835A mutant cells; assay: MTT growth inhibition assay, BaF3 FLT3 D835A cells; format: cell-based; settings: BaF3 FLT3 D835A, no IL-3, 48 h, MTT, read-out: Proliferation IC50
Description: as §1, §2, §3

[11] = system: BaF3 FLT3 D835N mutant cells; assay: MTT growth inhibition assay, BaF3 FLT3 D835N cells; format: cell-based; settings: no IL-3, 48 h, read-out: Proliferation IC50
Description: as §1, §2, §3

[12] = system: BaF3 FLT3 D835G mutant cells; assay: MTT growth inhibition assay, BaF3 FLT3 D835G cells; format: cell-based; settings: no IL-3, 48 h, read-out: Proliferation IC50
Description: as §1, §2, §3

[13] = system: BaF3 FLT3 D835L+K mutant cells; assay: MTT growth inhibition assay, BaF3 FLT3 D835L+K cells; format: cell-based; settings: no IL-3, 48 h, read-out: Proliferation IC50
Description: as §1, §2, §3

[14] = target: T1, FLT3 D835Y (Homo sapiens, UniProt P36888, D835Y); assay: FLT3 autophosphorylation, immunoprecipitation/Western blot, D835Y; format: cell-based; settings: FLT3 D835Y cells, highest concentrations tested, 1 h
T1 construct: expressed in transfected cells; host or cells: BaF3
T1 sequence (P36888 27-993 D835Y): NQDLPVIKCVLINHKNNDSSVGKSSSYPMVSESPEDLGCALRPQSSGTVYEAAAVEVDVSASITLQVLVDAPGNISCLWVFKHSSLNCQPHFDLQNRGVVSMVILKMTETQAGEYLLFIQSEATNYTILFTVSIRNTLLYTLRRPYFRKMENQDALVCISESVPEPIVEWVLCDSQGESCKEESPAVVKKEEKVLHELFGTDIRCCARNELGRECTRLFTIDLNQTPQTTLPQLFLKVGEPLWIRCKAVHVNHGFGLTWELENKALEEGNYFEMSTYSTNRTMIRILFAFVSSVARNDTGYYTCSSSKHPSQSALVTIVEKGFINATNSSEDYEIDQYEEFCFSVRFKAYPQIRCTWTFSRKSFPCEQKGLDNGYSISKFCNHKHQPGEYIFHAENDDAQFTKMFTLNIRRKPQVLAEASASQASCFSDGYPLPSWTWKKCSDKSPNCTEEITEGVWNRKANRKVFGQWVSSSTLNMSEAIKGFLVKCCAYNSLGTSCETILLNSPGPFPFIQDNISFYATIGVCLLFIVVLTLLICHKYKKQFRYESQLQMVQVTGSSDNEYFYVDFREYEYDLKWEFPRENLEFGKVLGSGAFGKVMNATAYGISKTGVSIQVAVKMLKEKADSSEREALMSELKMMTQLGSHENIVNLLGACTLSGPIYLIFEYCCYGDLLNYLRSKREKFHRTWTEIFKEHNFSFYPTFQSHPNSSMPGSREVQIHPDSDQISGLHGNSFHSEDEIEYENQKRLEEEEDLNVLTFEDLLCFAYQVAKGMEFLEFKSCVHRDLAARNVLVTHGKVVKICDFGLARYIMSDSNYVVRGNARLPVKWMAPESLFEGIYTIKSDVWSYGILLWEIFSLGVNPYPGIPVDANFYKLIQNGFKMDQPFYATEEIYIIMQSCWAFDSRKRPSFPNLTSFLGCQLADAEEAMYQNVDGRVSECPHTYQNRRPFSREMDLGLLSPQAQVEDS
Description: as §4, with “Phosphorylation of the FLT3 downstream signaling mediators, STAT5, AKT and MAP kinase was investigated by loading 50 µg of whole cell lysate and probing with the indicated antibodies. The membrane was washed and incubated in goat anti-rabbit secondary antibody conjugated to horseradish peroxidase followed by enhanced chemiluminescence (ECL). The membrane was subsequently stripped in 200 mM glycine buffer, pH 2.5 with 0.1% Tween-20 and reprobed for STAT5, AKT and MAP kinase expression using the respective antibodies.” left out

IC50 ([1]; Mus musculus) | IC50 [2] | IC50 [3] | IC50 [4] | IC50 [6] | IC50 [7] | IC50 [9] | IC50 [10] | IC50 [1] | IC50 [11] | IC50 [12] | IC50 [13] | Compound | also measured
0.012 µM |  |  |  |  |  |  |  |  |  |  |  | CO[C@@H]1[C@H](N(C)C(=O)c2ccccc2)C[C@H]2O[C@]1(C)n1c3ccccc3c3c4c(c5c6ccccc6n2c5c31)C(=O)NC4 [Midostaurin] | 
0.005 µM |  |  |  |  |  |  |  |  |  |  |  | CNC(=O)c1cc(Oc2ccc(NC(=O)Nc3ccc(Cl)c(C(F)(F)F)c3)cc2)ccn1 [Sorafenib] | IC50 ([2]; Mus musculus): > 0.2 µM; IC50 ([3]; Mus musculus): > 0.2 µM; IC50 ([4]; Mus musculus): 0.0102 µM; Leukemic burden (bioluminescence) on day 9 [5]: clear progression of leukemia; IC50 ([6]; Mus musculus): > 2 µM; IC50 ([7]; Mus musculus): 0.0185 µM; Inhibition of FLT3 autophosphorylation and phosphorylation of STAT5, AKT and Map kinase [8]: inhibited FLT3 autophosphorylation; IC50 ([9]; Mus musculus): 0.0482 µM; IC50 ([10]; Mus musculus): > 0.2 µM; IC50 ([11]; Mus musculus): 0.0316 µM; IC50 ([12]; Mus musculus): 0.0345 µM; IC50 ([13]; Mus musculus): > 0.2 µM; Inhibition of FLT3 autophosphorylation [14]: markedly reduced or absent inhibition
 | > 0.2 µM | > 0.2 µM | > 0.2 µM | > 0.2 µM | 0.166 µM | 0.152 µM | > 0.2 µM | > 0.2 µM | 0.153 µM | 0.141 µM | > 0.2 µM | COc1cc(Nc2ncc(F)c(Nc3ccc4c(n3)NC(=O)C(C)(C)O4)n2)cc(OC)c1OC [R406] | 
 | 0.0117 µM | 0.0028 µM | 0.009 µM | 0.0041 µM | < 0.001 µM | 0.0097 µM | 0.0013 µM | < 0.001 µM | < 0.001 µM | < 0.001 µM | 0.0067 µM | CNC(=O)[C@@]1(N)C[C@H]2O[C@]1(C)n1c3ccccc3c3c4c(c5c6ccccc6n2c5c31)C(=O)NC4 [TTT-3002] | 
